From patent US20080096811A1, “[…] VPAC2 RECEPTOR PEPTIDE AGONISTS” (Eli Lilly and Company, published 2008)
*1 amine or outer side, *2 acyl side, *3 side chain or, on linkers, in order; H or OH if unused. Where a SMILES comes first, the peptide text is derived from it. Where no end group is shown, it is not given here. Side-chain parts run from the residue outwards. The star is where a group is joined. γGlu = O=C(O)[C@H](CCC(=O)[*:2])N[*:1]; Hydrocinnamoyl = O=C(CCc1ccccc1)*; Palmitoyl = CCCCCCCCCCCCCCCC(=O)*; Hexanoyl = CCCCCC(=O)*; Bz = O=C(c1ccccc1)*

How the values were obtained:
human VPAC2 [1] = target: T1, human VPAC2 (Homo sapiens, UniProt P41587); assay: DiscoveRx cAMP in vitro potency, human VPAC2; assay type: cell-based
T1 construct: expressed in transfected cells
T1 sequence (P41587 24-438): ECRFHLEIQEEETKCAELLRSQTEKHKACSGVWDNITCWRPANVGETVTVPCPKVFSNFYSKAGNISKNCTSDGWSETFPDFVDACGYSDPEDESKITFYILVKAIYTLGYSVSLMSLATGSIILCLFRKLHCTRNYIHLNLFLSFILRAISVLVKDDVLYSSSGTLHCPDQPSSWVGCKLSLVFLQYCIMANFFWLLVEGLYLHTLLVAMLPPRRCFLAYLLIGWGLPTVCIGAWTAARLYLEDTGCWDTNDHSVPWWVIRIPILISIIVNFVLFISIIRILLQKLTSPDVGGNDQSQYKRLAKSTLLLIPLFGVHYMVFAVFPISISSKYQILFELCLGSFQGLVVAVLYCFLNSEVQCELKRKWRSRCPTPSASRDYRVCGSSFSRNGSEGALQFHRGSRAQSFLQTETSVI
Method: Also, the cells are washed twice. The cells are incubated in assay buffer plus IBMX for 15 minutes at room temperature. […] The stimuli are present for 30 minutes. Then, the assay buffer is gently removed. […] At day 3, the assay described above for the VPAC2 receptor cell line is performed.

human VPAC1 = target: T2, human VPAC1 (Homo sapiens, UniProt P32241); assay: Filter binding assay, human VPAC1 membranes, 125I-labeled VIP tracer; design: expressed in transfected cells
T2 sequence (P32241 31-457): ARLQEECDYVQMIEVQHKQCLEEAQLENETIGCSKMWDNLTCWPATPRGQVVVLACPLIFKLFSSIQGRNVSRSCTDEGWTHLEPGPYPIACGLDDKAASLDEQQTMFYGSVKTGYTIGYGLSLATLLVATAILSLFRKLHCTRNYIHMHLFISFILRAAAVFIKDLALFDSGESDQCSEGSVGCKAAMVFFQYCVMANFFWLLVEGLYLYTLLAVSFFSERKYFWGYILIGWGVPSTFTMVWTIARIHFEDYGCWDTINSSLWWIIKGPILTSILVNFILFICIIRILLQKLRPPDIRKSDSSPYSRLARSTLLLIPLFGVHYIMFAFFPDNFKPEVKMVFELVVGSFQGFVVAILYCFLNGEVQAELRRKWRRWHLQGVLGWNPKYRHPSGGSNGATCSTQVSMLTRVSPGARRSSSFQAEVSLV
Method: (§1) For this assay, the solutions and equipment include:
(§2) Presoak solution: 0.5% Polyethyleneamine in Aqua dest.
(§3) Buffer for flushing filter plates: 25 mM […] pH 7.4
(§4) Blocking buffer: 25 mM HEPES pH 7.4; 0.2% protease free BSA
(§5) Assay buffer: 25 mM HEPES pH 7.4; 0.5% protease free BSA
(§6) Dilution and assay plate: PS-Microplate, U form
(§7) Filtration Plate Multiscreen FB Opaque Plate; […] Type B Glasfiber filter
(§8) In order to prepare the filter plates, aspirate the presoak solution by vacuum filtration. Flush the plates twice with 200 μL flush buffer. Add 200 μL blocking buffer to the filter plate. The filter plate is then incubated […] for 1 hour at room temperature.
(§9) Fill the assay plate with 25 μL assay buffer, 25 μL membranes (2.5 μg) suspended in assay buffer, 25 μL compound (agonist) in assay buffer, and 25 μL tracer (about 40000 cpm) in assay buffer. Incubate the filled plate for 1 hour with shaking.
(§10) Conduct the transfer from assay plate to filter plate. Aspirate the blocking buffer by vacuum filtration and wash two times with flush buffer. Transfer 90 μL from the assay plate to the filter plate. Aspirate the 90 μL transferred from assay plate and wash three times with 200 μL flush buffer. Remove the plastic support. Dry for 1 hour at 60° C. Add 30 μL Microscint. Perform the count.

human VPAC2 [2] = target: T1, human VPAC2; assay: Filter binding assay, human VPAC2 membranes, 125I-labeled VIP tracer
Method: as §1, §2, §3, §4, §5, §6, §7, §8, §9, §10

human VPAC2 [3] = target: T1, human VPAC2; assay: Alpha screen cAMP in vitro potency, human VPAC2; assay type: cell-based
Method: Alpha screen: Cells are washed in the culture flask once with PBS. Then, the cells are rinsed with enzyme free dissociation buffer. The dissociated cells are removed. The cells are then spun down and washed in stimulation buffer. For each data point, 50,000 cells suspended in stimulation buffer are used. To this buffer, Alpha screen acceptor beads are added along with the stimuli. This mixture is incubated for 60 minutes. Lysis buffer and Alpha screen donor beads are added and are incubated for 60 to 120 minutes. The Alpha screen signal (indicative of intracellular cAMP levels) is read in a suitable instrument (e.g. AlphaQuest from Perlin-Elmer). Steps including Alpha screen donor and acceptor beads are performed in reduced light.

human PAC1 = human PAC1 (Homo sapiens, UniProt P41586); assay: biochemical
Method: as §1, §2, §3, §4, §5, §6, §7, §8, §9, §10

human PAC1, sequence (P41586 21-468): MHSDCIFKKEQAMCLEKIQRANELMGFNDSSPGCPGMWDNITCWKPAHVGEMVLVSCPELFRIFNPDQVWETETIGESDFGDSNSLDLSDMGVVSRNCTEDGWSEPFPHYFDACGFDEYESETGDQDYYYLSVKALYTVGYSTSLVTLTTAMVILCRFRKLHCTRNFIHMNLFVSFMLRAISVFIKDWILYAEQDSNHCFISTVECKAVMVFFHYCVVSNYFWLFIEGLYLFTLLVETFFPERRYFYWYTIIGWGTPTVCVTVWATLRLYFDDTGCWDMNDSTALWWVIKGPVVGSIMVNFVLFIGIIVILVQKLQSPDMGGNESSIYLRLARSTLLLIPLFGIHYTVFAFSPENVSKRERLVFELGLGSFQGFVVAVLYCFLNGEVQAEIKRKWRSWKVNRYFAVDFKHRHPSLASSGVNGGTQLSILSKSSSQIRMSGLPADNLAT

Compound | EC50 (human VPAC2 [1]) [nM] | IC50 (human VPAC1) [nM] | IC50 (human VPAC2 [2]) [nM] | EC50 (human VPAC2 [3]) [nM] | IC50 (human PAC1) [nM]
CCCCCCCCCCCCCCCC(=O)N[C@@H](CCC(=O)NCCCC[C@H](NC(=O)[C@@H]1CCCN1C(=O)[C@@H]1CCCN1C(=O)[C@@H]1CCCN1C(=O)[C@H](CO)NC(=O)[C@@H](NC(=O)[C@H](CCCNC(=N)N)NC(=O)[C@H](CO)NC(=O)[C@H](CC(N)=O)NC(=O)[C@H](CCCCN)NC(=O)[C@@H](NC(=O)[C@H](CO)NC(=O)[C@H](CCC(N)=O)NC(=O)[C@H](CC(C)C)NC(=O)[C@H](Cc1ccc(O)cc1)NC(=O)[C@H](CCCCN)NC(=O)[C@H](CCCCN)NC(=O)[C@H](C)NC(=O)[C@H](C)NC(=O)[C@@H](NC(=O)[C@H](CCC(N)=O)NC(=O)[C@H](CCCCN)NC(=O)[C@H](CCCNC(=N)N)NC(=O)[C@H](CC(C)C)NC(=O)[C@H](CCCNC(=N)N)NC(=O)[C@@H](NC(=O)[C@H](Cc1ccc(O)cc1)NC(=O)[C@H](CC(N)=O)NC(=O)[C@H](CC(=O)O)NC(=O)[C@@H](NC(=O)[C@H](Cc1ccccc1)NC(=O)[C@@H](NC(=O)[C@H](C)NC(=O)[C@H](CC(=O)O)NC(=O)[C@H](CO)NC(=O)[C@@H](N)Cc1c[nH]cn1)C(C)C)[C@@H](C)O)[C@@H](C)O)C(C)C)[C@@H](C)CC)[C@@H](C)O)C(N)=O)C(=O)O [Agonist P80] (H-HSDAVFTDNYTRLRKQVAAKKYLQSIKNSRTSPPPK([γGlu-Palmitoyl])-NH2) | 2.8 | 284 | 31.6 | 1.82 | –
CC[C@H](C)[C@H](NC(=O)[C@H](CO)NC(=O)[C@H](CCC(N)=O)NC(=O)[C@H](CC(C)C)NC(=O)[C@H](Cc1ccc(O)cc1)NC(=O)[C@H](CCCCN)NC(=O)[C@H](CCCCN)NC(=O)[C@H](C)NC(=O)[C@H](C)NC(=O)[C@@H](NC(=O)[C@H](CCC(N)=O)NC(=O)[C@H](CCCCN)NC(=O)[C@H](CCCNC(=N)N)NC(=O)[C@H](CC(C)C)NC(=O)[C@H](CCCNC(=N)N)NC(=O)[C@@H](NC(=O)[C@H](Cc1ccc(O)cc1)NC(=O)[C@H](CC(N)=O)NC(=O)[C@H](CC(=O)O)NC(=O)[C@@H](NC(=O)[C@H](Cc1ccccc1)NC(=O)[C@@H](NC(=O)[C@H](C)NC(=O)[C@H](CC(=O)O)NC(=O)[C@H](CO)NC(=O)[C@H](Cc1c[nH]cn1)NC(=O)CCc1ccccc1)C(C)C)[C@@H](C)O)[C@@H](C)O)C(C)C)C(=O)N[C@@H](CCCCN)C(=O)N[C@@H](CC(N)=O)C(=O)N[C@@H](CO)C(=O)N[C@@H](CCCNC(=N)N)C(=O)N[C@H](C(=O)N[C@@H](CO)C(=O)N1CCC[C@H]1C(=O)N1CCC[C@H]1C(=O)N1CCC[C@H]1C(N)=O)[C@@H](C)O [Agonist P90] (Hydrocinnamoyl-HSDAVFTDNYTRLRKQVAAKKYLQSIKNSRTSPPP-NH2) | 1.7 | 65 | 0.82 | 4.01 | –
CC[C@H](C)[C@H](NC(=O)[C@H](CO)NC(=O)[C@H](CCC(N)=O)NC(=O)[C@H](CC(C)C)NC(=O)[C@H](Cc1ccc(O)cc1)NC(=O)[C@H](CCCCN)NC(=O)[C@H](CCCCN)NC(=O)[C@H](C)NC(=O)[C@H](C)NC(=O)[C@@H](NC(=O)[C@H](CCC(N)=O)NC(=O)[C@H](CCCCN)NC(=O)[C@H](CCCNC(=N)N)NC(=O)[C@H](CC(C)C)NC(=O)[C@H](CCCNC(=N)N)NC(=O)[C@@H](NC(=O)[C@H](Cc1ccc(O)cc1)NC(=O)[C@H](CC(N)=O)NC(=O)[C@H](CC(=O)O)NC(=O)[C@@H](NC(=O)[C@H](Cc1ccccc1)NC(=O)[C@@H](NC(=O)[C@H](C)NC(=O)[C@H](CC(=O)O)NC(=O)[C@H](CO)NC(=O)[C@H](Cc1c[nH]cn1)NC(=O)c1ccccc1)C(C)C)[C@@H](C)O)[C@@H](C)O)C(C)C)C(=O)N[C@@H](CCCCN)C(=O)N[C@@H](CC(N)=O)C(=O)N[C@@H](CO)C(=O)N[C@@H](CCCNC(=N)N)C(=O)N[C@H](C(=O)N[C@@H](CO)C(=O)N1CCC[C@H]1C(=O)N1CCC[C@H]1C(=O)N1CCC[C@H]1C(N)=O)[C@@H](C)O [Agonist P91] (Bz-HSDAVFTDNYTRLRKQVAAKKYLQSIKNSRTSPPP-NH2) | 0.76 | 58.2 | 0.21 | 1.9 | –
CCCCCC(=O)N[C@@H](Cc1c[nH]cn1)C(=O)N[C@@H](CO)C(=O)N[C@@H](CC(=O)O)C(=O)N[C@@H](C)C(=O)N[C@H](C(=O)N[C@@H](Cc1ccccc1)C(=O)N[C@H](C(=O)N[C@@H](CC(=O)O)C(=O)N[C@@H](CC(N)=O)C(=O)N[C@@H](Cc1ccc(O)cc1)C(=O)N[C@H](C(=O)N[C@@H](CCCNC(=N)N)C(=O)N[C@@H](CC(C)C)C(=O)N[C@@H](CC(C)C)C(=O)N[C@@H](CC(C)C)C(=O)N[C@@H](CCCCN)C(=O)N[C@H](C(=O)N[C@@H](C)C(=O)N[C@@H](C)C(=O)N[C@@H](CCCCN)C(=O)N[C@@H](CCCCN)C(=O)N[C@@H](Cc1ccc(O)cc1)C(=O)N[C@@H](CC(C)C)C(=O)N[C@@H](CCC(N)=O)C(=O)N[C@@H](CO)C(=O)N[C@H](C(=O)N[C@@H](CCCCN)C(=O)N[C@@H](CC(N)=O)C(=O)N[C@@H](CO)C(=O)N[C@@H](CCCNC(=N)N)C(=O)N[C@H](C(=O)N[C@@H](CO)C(=O)N1CCC[C@H]1C(=O)N1CCC[C@H]1C(=O)N1CCC[C@H]1C(N)=O)[C@@H](C)O)[C@@H](C)CC)C(C)C)[C@@H](C)O)[C@@H](C)O)C(C)C [Agonist P156] (Hexanoyl-HSDAVFTDNYTRLLLKVAAKKYLQSIKNSRTSPPP-NH2) | – | 93.3 | 0.42 | 0.29 | 8290
CCCCCC(=O)N[C@@H](Cc1c[nH]cn1)C(=O)N[C@@H](CO)C(=O)N[C@@H](CC(=O)O)C(=O)N[C@@H](C)C(=O)N[C@H](C(=O)N[C@@H](Cc1ccccc1)C(=O)N[C@H](C(=O)N[C@@H](CC(=O)O)C(=O)N[C@@H](CCC(N)=O)C(=O)N[C@@H](Cc1ccc(O)cc1)C(=O)N[C@H](C(=O)N[C@@H](CCCNC(=N)N)C(=O)N[C@@H](CC(C)C)C(=O)N[C@@H](CCCNC(=N)N)C(=O)N[C@@H](CCCCN)C(=O)N[C@@H](CCC(N)=O)C(=O)N[C@H](C(=O)N[C@@H](C)C(=O)N[C@@H](C)C(=O)N[C@@H](CCCCN)C(=O)N[C@@H](CCCCN)C(=O)N[C@@H](Cc1ccc(O)cc1)C(=O)N[C@@H](CC(C)C)C(=O)N[C@@H](CCC(N)=O)C(=O)N[C@@H](CO)C(=O)N[C@H](C(=O)N[C@@H](CCCCN)C(=O)N[C@@H](CCC(N)=O)C(=O)N[C@@H](CO)C(=O)N[C@@H](CCCNC(=N)N)C(=O)N[C@H](C(=O)N[C@@H](CO)C(=O)N1CCC[C@H]1C(=O)N1CCC[C@H]1C(=O)N1CCC[C@H]1C(N)=O)[C@@H](C)O)[C@@H](C)CC)C(C)C)[C@@H](C)O)[C@@H](C)O)C(C)C [Agonist P157] (Hexanoyl-HSDAVFTDQYTRLRKQVAAKKYLQSIKQSRTSPPP-NH2) | – | 30.6 | 0.14 | 0.06 | 222
HSDAVFTDNYTRLRKAAAAKKYLQSIKNSRTSPPP-NH2 [Agonist P97] | – | 97.5 | 0.82 | 0.64 | 87.3
HSDAVFTDNYTRLRKQAAAKKYLQSIKNSRTSPPP-NH2 [Agonist P96] | – | 89.3 | 0.58 | 0.9 | 151
